Experimental data from ChEMBL document CHEMBL1140121, “X-ray crystal structure of human heme oxygenase-1 in complex with 1-(adamantan-1-yl)-2-(1H-imidazol-1-yl)ethanone: a common binding mode for imidazole-based heme oxygenase-1 inhibitors” (J Med Chem, 2008).

How the values were obtained:
[1] = target: T1, Heme oxygenase 1 (Homo sapiens) (UniProt P09601); assay: Residual activity of human recombinant HO1 expressed in Escherichia coli DH5alpha assessed as remaining heme at 25 uM by spectrophotometry in absence of L-ascorbic acid relative to control
T1 sequence (whole entry): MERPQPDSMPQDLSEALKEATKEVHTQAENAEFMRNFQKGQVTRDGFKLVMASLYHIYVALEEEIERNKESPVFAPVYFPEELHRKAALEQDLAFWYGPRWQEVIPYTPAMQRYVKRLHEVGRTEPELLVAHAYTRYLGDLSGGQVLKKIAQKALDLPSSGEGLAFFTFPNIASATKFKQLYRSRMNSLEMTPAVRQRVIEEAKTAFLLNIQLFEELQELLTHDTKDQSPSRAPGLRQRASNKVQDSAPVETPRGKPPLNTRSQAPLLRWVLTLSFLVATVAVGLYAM

[2] = target: T1, Heme oxygenase 1 (Homo sapiens); assay: Residual activity of human recombinant HO1 expressed in Escherichia coli DH5alpha assessed as remaining heme at 50 uM by spectrophotometry in absence of L-ascorbic acid relative to control
[3] = target: T1, Heme oxygenase 1 (Homo sapiens); assay: Inhibition of human recombinant HO1 expressed in Escherichia coli DH5alpha assessed as heme degradation at 10 uM by spectrophotometry in presence of L-ascorbic acid relative to control
[4] = target: T1, Heme oxygenase 1 (Homo sapiens); assay: Inhibition of human recombinant HO1 expressed in Escherichia coli DH5alpha assessed as heme degradation at 25 uM by spectrophotometry in presence of L-ascorbic acid relative to control; parameters: scale not given: the % may be the effect or the level left

| SMILES | residual activity [1] [%] | residual activity [2] [%] | inhibition [3] [%] | Activity [4] [%] |
| --- | --- | --- | --- | --- |
| O=C(Cn1ccnc1)C12CC3CC(CC(C3)C1)C2 | 44 | 54 |  |  |
| Clc1ccc(CCC2(Cn3ccnc3)OCCO2)cc1 | 65 | 80 | 39 | 15 |
